Test results: ChEMBL document CHEMBL4627268, “Development of a potent and orally active activator of adenosine monophosphate-activated protein kinase (AMPK), ASP4132, as a clinical candidate for the treatment of human cancer” (Bioorg Med Chem, 2020)

Assays:
[1] = Intrinsic clearance in human liver microsomes at 0.1 to 0.2 umol/L incubated for 30 mins in presence of NADPH by LC-MS/MS analysis; format: ADME, Microsome; conditions: read-out: CLH
[2] = Volume of distribution at steady state in Sprague-Dawley rat at 1 mg/kg, iv by LC-MS/MS analysis; format: ADME, organism-based; conditions: in vivo, read-out: Vdss
[3] = Tmax in Sprague-Dawley rat at 1 mg/kg, po by LC-MS/MS analysis; format: ADME, organism-based; conditions: in vivo
[4] = Total clearance in Sprague-Dawley rat at 1 mg/kg, iv by LC-MS/MS analysis; format: ADME, organism-based; conditions: in vivo
[5] = Oral bioavailability in Sprague-Dawley rat at 1 mg/kg by LC-MS/MS analysis; format: ADME, organism-based; conditions: in vivo
[6] = AUC (0 to 24 hrs) in Sprague-Dawley rat at 1 mg/kg, iv by LC-MS/MS analysis; format: ADME, organism-based; set-up: time < 24 hr, dose 1 mg/kg, route intravenous; conditions: in vivo
[7] = Cmax in Sprague-Dawley rat at 1 mg/kg, po by LC-MS/MS analysis; format: ADME, organism-based; set-up: dose 1 mg/kg, route oral; conditions: in vivo
[8] = AUC (0 to 24 hrs) in Sprague-Dawley rat at 1 mg/kg, po by LC-MS/MS analysis; format: ADME, organism-based; set-up: time < 24 hr, dose 1 mg/kg, route oral; conditions: in vivo
[9] = Elimination half-life in Sprague-Dawley rat at 1 mg/kg, iv by LC-MS/MS analysis; format: ADME, organism-based; conditions: in vivo, read-out: beta t1/2 (converted)
[10] = Drug metabolism in Sprague-Dawley rat hepatocytes assessed as esterase-mediated anilide hydrolysis; format: ADME, cell-based; conditions: isolated protein

CLint scaled [1] [mL/min/kg] | Vd [2] [L/kg] | Tmax [3] [h] | clearance [4] [mL/min/kg] | bioavailability [5] [%] | AUC(0-t) at 24 h [6] [ng·h/mL] | Cmax [7] [ng/mL] | AUC(0-t) at 24 h [8] [ng·h/mL] | half-life [9] [h] | Drug metabolism [10] | SMILES
185 |  |  |  |  |  |  |  |  |  | COc1ccc(CN2CCN(C(=O)Nc3ccc(C(=O)N4CCN(Cc5ccc(C(F)(F)F)cc5)CC4)cc3)CC2)cc1
61 | 4.6 | 1.7 | 19 | 80 | 887 | 72 | 705 | 3.6 |  | COc1ccc(CN2CCC(c3ccc4[nH]c(C(=O)N5CCN(Cc6ccc(C(F)(F)F)cc6)CC5)nc4c3)CC2)cn1.Cc1ccc(S(=O)(=O)O)cc1.Cc1ccc(S(=O)(=O)O)cc1
77 | 50.9 | 0.5 | 137 | 11 | 123 | 1.9 | 13.3 | 3.5 | Metabolite_Detected | COc1ccc(CN2CCC(C(=O)Nc3ccc(C(=O)N4CCN(Cc5ccc(C(F)(F)F)cc5)CC4)cc3)CC2)cn1
158 |  |  |  |  |  |  |  |  |  | O=C(Nc1ccc(C(=O)N2CCN(Cc3ccc(C(F)(F)F)cc3)CC2)cc1)N1CCN(Cc2ccc(C(F)(F)F)cc2)CC1
